Reference: patent publication US10653642B2, “Compositions and methods for the treatment of tauopathies” (UNIVERSITY OF SOUTH FLORIDA, priority 2017, dated 2020)

Key:
Type in all cases: cell-based
endogenous tau = assay: Western blot of tau levels in M17 neuroblastoma cells
Description: (§1) It was examined whether hexachlorophene can regulate levels of tau in cellular models. Three different cells lines were treated with hexachlorophene at various different doses. M17 neuroblastoma cells were treated with 1 μM, 2 μM, 3 μM, 5 μM, and 10 μM hexachlorophene. HeLa C3 cells were treated with 0.5 μM, 1 μM, 2 μM, 3 μM, and 5 μM hexachlorophene. iHEK280 cells (an inducible tau model) were treated with 0.5 μM, 1 μM, 1.5 μM, 2 μM, and 2.5 μM hexachlorophene. Cell lysates were analyzed by Western blotting for total tau, phosphorylated tau, and actin (as a control). We also analyzed the effect of hexachlorophene on various pathological forms of tau such as the phosphoserine 396 tau form that localizes to the soluble fraction. Hexachlorophene was purchased from Sigma-Aldrich (St. Louis, Mo.). BE(2) M17 neuroblastoma cells were purchased from ATCC (Manassas, Va.). HeLa C3 cells were generated according to Jinwal et al. (J. Neurosci. 2009, 29, 12079-12088). iHEK cells were generated according to Abisambra et al. (J. Neurosci. 2013, 33, 9498-9507). Neuro-2a (N2a) mouse neuroblastoma cells overexpressing human tau-GFP were generated in house.

over-expressed tau = target: T1, over-expressed tau (Homo sapiens, UniProt P10636); assay: Western blot of tau levels in HeLa C3 cells with over-expressed tau; conditions: for phosphorylated tau levels / total tau levels: 0.5-5 μM
T1 construct: expressed in transfected cells; host or cells: HeLa C3 cells
T1 sequence (P10636 1-383 isoform P10636-6): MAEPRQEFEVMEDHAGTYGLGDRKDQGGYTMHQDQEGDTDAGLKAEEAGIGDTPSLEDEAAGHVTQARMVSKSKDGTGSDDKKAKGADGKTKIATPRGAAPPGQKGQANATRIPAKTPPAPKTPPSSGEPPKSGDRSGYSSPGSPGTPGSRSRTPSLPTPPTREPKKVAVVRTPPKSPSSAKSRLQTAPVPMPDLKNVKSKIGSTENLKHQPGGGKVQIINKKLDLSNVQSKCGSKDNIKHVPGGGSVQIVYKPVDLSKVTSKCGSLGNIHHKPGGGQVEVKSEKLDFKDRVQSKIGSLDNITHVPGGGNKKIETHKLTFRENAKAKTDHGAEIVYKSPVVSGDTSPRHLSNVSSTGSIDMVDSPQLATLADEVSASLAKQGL
Description: as §1

inducible tau = assay: Western blot of tau levels in iHEK280 cells (inducible tau model); conditions: for levels of phosphorylated tau / levels of total tau: 0.5-2.5 μM
Description: as §1

tau aggregates = assay: Thioflavin-S staining of tau aggregates in HEK280 cells
Description: We examined the effect of hexachlorophene on tau aggregation using thioflavin-S staining. Thioflavin S is a mixture of compounds that results from the methylation of dehydrothiotoluidine with sulfonic acid, and it is used to stain tau aggregates. Upon binding tau aggregates, thioflavin S gives a distinct increase in fluorescence emission. Thioflavin-S staining was performed by incubating HEK280 cells with 0.1% thioflavin-S for 5 min, with or without 1 μM hexachlorophene. Cells were also labelled with a primary rabbit polyclonal Tau Antibody diluted with 5% goat serum and a secondary anti-rabbit antibody labeled with red. Cells containing distinct thioflavin-S signals indicating the presence of aggregated protein were scored in many independent fields containing a total of 500 cells.

human tau-GFP [1] = assay: Western blot of tau in Neuro-2a (N2a) mouse neuroblastoma cells overexpressing human tau-GFP; conditions: nanomolar concentrations, 24 hours
Description: as §1
Neuro-2a (N2a) mouse neuroblastoma cells overexpressing human tau-GFP were examined for the effect of hexachlorophene on tau protein using Western blot analysis. […]

human tau-GFP [2] = assay: Immunofluorescence and confocal microscopy of Neuro-2a cells overexpressing human tau-GFP; conditions: N2a cells, immunofluorescence, 0.1-3 μM, 24 hours
Text: Neuro-2a (N2a) mouse neuroblastoma cells overexpressing human tau-GFP were examined for the effect of hexachlorophene on tau protein using Western blot analysis. […] Immunofluorescence and confocal microscopy were also used to analyze the effect of hexachlorophene on the cells.

[3] = 24 hours, listed as Hexachlorophene

Q: Which “levels of phosphorylated serine 396 tau in the soluble fraction” value (from here on “levels … in the soluble fraction”) (endogenous tau) does the source give for Oc1c(Cl)cc(Cl)c(Cl)c1Cc1c(O)c(Cl)cc(Cl)c1Cl [hexachlorophene] here?
A: The value was “decreased”.

Q: What about the “phosphorylated (Pser396) tau proteins” value (endogenous tau; 10 μM, 24 hours) of the same compound?
A: The value was “completely cleared”.

Q: What about the “levels of endogenous (total) tau” value (endogenous tau; 1-10 μM, 24 hours) of the same compound?
A: Its value is “decreased”.

Q: And the “phosphorylated form of endogenous tau” value (endogenous tau; 1-10 μM, 24 hours)?
A: Its value is “significantly reduced”.

Q: And the “levels of endogenous (total) tau” value (endogenous tau; 1-10 μM, 24 hours, listed as Hexachlorophene)?
A: Its value is “significantly reduced”.

Q: And the “levels … in the soluble fraction” value (over-expressed tau)?
A: Its value is “decreased”.

Q: And the “phosphorylated tau (Pser396)” value (over-expressed tau; 2 μM, 24 hours)?
A: Its value is “completely cleared”.

Q: What about the total tau (over-expressed tau; 2 μM, 24 hours) of the same compound?
A: Its total tau is “partially cleared”.

Q: And the phosphorylated tau levels (over-expressed tau; 24 hours)?
A: The phosphorylated tau levels was “decreased”.

Q: And the total tau levels (over-expressed tau; 24 hours)?
A: The total tau levels was “decreased”.

Q: What about the phosphorylated tau levels (over-expressed tau; [3]) of the same compound?
A: The phosphorylated tau levels was “significantly reduced”.

Q: And the total tau levels (over-expressed tau; [3])?
A: Its total tau levels is “significantly reduced”.

Q: And the “levels … in the soluble fraction” value (inducible tau)?
A: The value was “decreased”.

Q: What about the “phosphorylated tau (Pser396)” value (inducible tau; 1.5 μM, 24 hours) of the same compound?
A: Its value is “completely cleared”.

Q: And the total tau (inducible tau; 1.5 μM, 24 hours)?
A: The total tau was “partially cleared”.

Q: And the “phosphorylated tau (Pser396) levels” value (inducible tau; 2 μM, 24 hours)?
A: Its value is “cleared”.

Q: And the total tau protein (inducible tau; 2 μM, 24 hours)?
A: Its total tau protein is “cleared”.

Q: And the “levels of phosphorylated tau” value (inducible tau; 24 hours)?
A: Its value is “decreased”.

Q: And the “levels of total tau” value (inducible tau; 24 hours)?
A: The value was “decreased”.

Q: And the “levels of phosphorylated tau” value (inducible tau; [3])?
A: The value was “significantly reduced”.

Q: What about the “levels of total tau” value (inducible tau; [3]) of the same compound?
A: The value was “significantly reduced”.

Q: And the “tau aggregation (thioflavin-S staining)” value (tau aggregates; 1 μM)?
A: Its value is “significant reduction”.

Q: And the “tau aggregates (thioflavin-S signal)” value (tau aggregates; 24 hours)?
A: Its value is “reduced”.

Q: What about the “phosphorylated tau (Pser396 & Pser199)” value (human tau-GFP [1]) of the same compound?
A: The value was “reduced”.

Q: And the total tau protein (human tau-GFP [1])?
A: The total tau protein was “reduced”.

Q: What about the “phosphorylated tau (Pser396 and Pser199)” value (human tau-GFP [2]) of the same compound?
A: Its value is “reduced”.

Q: And the total tau protein (human tau-GFP [2])?
A: The total tau protein was “reduced”.
